According to patent US20090233841A1, “ANALGESIC CONJUGATES” (Regents of the University of Minnesota, priority 2005, published 2009):
“Also recorded” adds a separate entry of the source.

How the values were obtained:
male ICR mice [1] = test: Mouse radiant heat tail flick assay after acute ICV administration; type: in vivo; conditions: for ED50 nmol (95% C.L.), antinociceptive potency / Ligand ED50 pmol (95% C.L.), antinociceptive potency: mouse tail flick, acute ICV administration; for ED50 nmol (95% C.L.), antinociceptive potency: conjugates and coadministration; for Ligand ED50 pmol (95% C.L.), antinociceptive potency: mu control ligands
Experimental: Acute drug administration. Drugs were dissolved in sterile saline (0.9% NaCl). Animals were anesthetized with halothane and drugs were administered with a Hamilton syringe mated to a shortened (3 mm) 27-g needle in a volume of 4 μl by ICV injection into the lateral cerebral ventricle (Haley et al., 1957). The injection site was 1.6 mm lateral and 0.6 mm caudal to bregma.
Antinociceptive testing. […] Mice were tested once before injection (control time).

male ICR mice [2] = test: Tolerance: tail flick ED50 after 3-day chronic ICV infusion (osmotic minipump); type: in vivo, mouse; conditions: for tolerance on chronic ICV administration: 3-day ICV infusion; for Chronic ED50 nmol (95% C.L.): compound chronically administered ICV for 3 days, then challenge doses; for Saline ED50 nmol (95% C.L.): saline chronically administered ICV for 3 days, then challenge doses of compound; for fold increase in ED50 value after chronic ICV infusion: three-day ICV infusion
Experimental: (§1) Chronic administration To investigate tolerance and dependence associated with these conjugates, chronic ICV administration studies were performed. The compound of interest was administered ICV via a cannula using an osmotic minipump for 3 days, as previously described (Gomori et al., 2003; Mashiko et al., 2003). Withdrawal was measured by administering naloxone (1 mg/kg; subcutaneous (sc)) and counting the naloxone-precipitated jumps for 10 minutes. Tolerance was determined by administering challenge doses of the compound after chronic infusion for 3 days, and determining the chronic ED50 value at that time.
(§2) Chronic ICV infusion. Osmotic minipumps (model 1003D, Alzet, Durect Corporation, Cupertino, Calif.) were filled with saline or the drug to be tested. The dose of each drug was twelve times its ED50 (nmol)/hour. The minipumps were connected by a 1.6-1.8 cm length of PE-60 tubing to a 3-mm long cannula (osmotic pump connector cannula, Plastics One, Roanoke, Va.) and primed in sterile saline at 37° C. overnight.
(§3) The next day, mice were anesthetized with Avertin (2,2,2-tribromoethanol (370 mg/kg, IP)/tert amyl alcohol (0.16 mg/kg, IP)) before surgery. The scalp was shaved and an incision was made along the midline of the scalp. Hemostats were used to make a pocket under the skin between the shoulder blades. The skull was scraped clean of periosteum so that the cannula pedestal would properly adhere to the skull. A micro drill (Fine Science Tools Inc., Foster City, Calif.) was used to drill a hole approximately 1.6 mm lateral and 0.6 mm caudal to bregma. The minipump was placed between the shoulder blades, the cannula was inserted in the drilled hole into the lateral ventricle, and the cannula pedestal was affixed to the skull with cyanoacrylate glue. The animals were allowed to recover on a heating pad (Fine Science Tools, Foster City, Calif.) and were returned to their cages in the animal facility for three days.
To test the degree of tolerance developed, the osmotic minipump was removed and the mice were returned to their cages for four hours. The mice were then injected with the test drug into the contralateral lateral cerebral ventricle and antinociception was measured with the tail flick test as described above.

male ICR mice [3] = test: Physical dependence: naloxone-precipitated withdrawal jumping after chronic ICV infusion; type: in vivo, mouse; conditions: for physical dependence on chronic ICV administration: 3-day ICV infusion, naloxone-precipitated jumping; for # of Jumps (SEM), naloxone-precipitated withdrawal: average jumps in 10 minutes after naloxone 1 mg/kg sc, after 3-day ICV infusion
Experimental: as §1, §2, §3
Testing for dependence and tolerance. The development of physical dependence was assessed by quantifying withdrawal jumping observed during precipitated withdrawal (Way et al., 1969) on the fourth day after surgery. Mice were injected with naloxone (1 mg/kg, sc) and placed into Plexiglas cylinders for 10 minutes. During those 10 minutes, vertical jumps were counted as withdrawal signs.

male ICR mice [4] = test: Mouse tail flick assay after IV administration; conditions: tail flick, IV
Experimental: Antinociceptive testing. Antinociception was evaluated by the radiant heat tail flick assay (D'Amour et al., 1941). Briefly, a beam of light was focused on the mouse tail and the time until the tail flicked was measured. Each animal served as its own control and was used only once. Mice were tested once before injection (control time). After injection, the mice were tested at the time of peak drug response (drug time), as determined by pilot time course studies. The light intensity was adjusted so that control times were between 1.5 and 2.5 s. A 10 second cutoff drug time was set to minimize the risk of tissue damage. Percent maximum possible effect (% MPE) was calculated as follows (Dewey et al., 1970): […]
Graded dose response curves of at least 4 doses with at least 8 mice per dose were generated from the % MPE data.
Methods Drugs were administered IV via the tail vein in a volume of 100 μl to male ICR mice. Fifteen minutes later, antinociception was measured by the tail flick assay and charcoal meal (300 μl, oral) was administered by gavage. Thirty minutes after the charcoal meal., the mice were sacrificed by halothane overdose and the distance the charcoal traveled relative to the entire length of the GI tract was compared to the distance traveled in control animals injected with saline. The conjugates tested (MDAN-16, MDAN-19, MDAN-20, and MDAN-21) had linker lengths of 19, 23, 24, and 25 Å.

SMILES: CN1CCC23c4c5ccc(O)c4OC2C(NC(=O)COCC(=O)NCCCNC(=O)COCC(=O)Nc2cccc4c6c([nH]c24)C2Oc4c(O)ccc7c4C24CCN(CC2CC2)C(C7)C4(O)C6)CCC3(O)C1C5 (stereo not drawn) [Compound 4]
- ED50 nmol (95% C.L.), antinociceptive potency (male ICR mice [1]): 1.49 (1.04-1.95) nmol
- tolerance on chronic ICV administration (male ICR mice [2]; listed as MDAN-17): produced tolerance; also recorded: tolerance without physical dependence developed
- Chronic ED50 nmol (95% C.L.) (male ICR mice [2]): 5.61 (4.39-6.83) nmol
- Saline ED50 nmol (95% C.L.) (male ICR mice [2]): 1.54 (0.89-2.20) nmol
- fold increase in ED50 value after chronic ICV infusion (male ICR mice [2]): 3.6 fold
- physical dependence on chronic ICV administration (male ICR mice [3]; listed as MDAN-17): without producing dependence; also recorded: without physical dependence
- # of Jumps (SEM), naloxone-precipitated withdrawal (male ICR mice [3]): 0.9 (0.7)
- # of Jumps (SEM), naloxone-precipitated withdrawal (male ICR mice [3]; listed as MDAN-17): 0.94

SMILES: CN1CCC23c4c5ccc(O)c4OC2C(NC(=O)COCC(=O)NCCCCNC(=O)COCC(=O)Nc2cccc4c6c([nH]c24)C2Oc4c(O)ccc7c4C24CCN(CC2CC2)C(C7)C4(O)C6)CCC3(O)C1C5 (stereo not drawn) [Compound 5]
- ED50 nmol (95% C.L.), antinociceptive potency (male ICR mice [1]): 0.95 (0.68-1.23) nmol
- tolerance on chronic ICV administration (male ICR mice [2]; listed as MDAN-18): produced tolerance; also recorded: tolerance without physical dependence developed
- Chronic ED50 nmol (95% C.L.) (male ICR mice [2]): 4.75 (3.50-6.00) nmol
- Saline ED50 nmol (95% C.L.) (male ICR mice [2]): 1.29 (0.97-1.61) nmol
- fold increase in ED50 value after chronic ICV infusion (male ICR mice [2]): 3.7 fold
- physical dependence on chronic ICV administration (male ICR mice [3]; listed as MDAN-18): without producing dependence; also recorded: without physical dependence
- # of Jumps (SEM), naloxone-precipitated withdrawal (male ICR mice [3]): 8.9 (3.0)
- # of Jumps (SEM), naloxone-precipitated withdrawal (male ICR mice [3]; listed as MDAN-18): 8.9

SMILES: CN1CCC23c4c5ccc(O)c4OC2C(NC(=O)COCC(=O)NCCCCCCNC(=O)COCC(=O)Nc2cccc4c6c([nH]c24)C2Oc4c(O)ccc7c4C24CCN(CC2CC2)C(C7)C4(O)C6)CCC3(O)C1C5 (stereo not drawn) [Compound 7, 7′-{2-[(6-{2-[({(5α,6α)-4,5-Epoxy-3,14-dihydroxy-17-methylmorphin-6-yl}-aminocarbonyl)-methoxy]-acetylamino}-hexylaminocarbonyl)-methoxy]-acetylamino}-naltrindole]
- ED50 nmol (95% C.L.), antinociceptive potency (male ICR mice [1]): 0.17 (0.15-0.19) nmol
- tolerance on chronic ICV administration (male ICR mice [2]; listed as MDAN-20): no tolerance or dependence was observed; also recorded: produced no tolerance or physical dependence
- Chronic ED50 nmol (95% C.L.) (male ICR mice [2]): 0.17 (0.13-0.21) nmol
- Saline ED50 nmol (95% C.L.) (male ICR mice [2]): 0.17 (0.15-0.20) nmol
- physical dependence on chronic ICV administration (male ICR mice [3]; listed as MDAN-20): no tolerance or dependence was observed; also recorded: produced no tolerance or physical dependence
- # of Jumps (SEM), naloxone-precipitated withdrawal (male ICR mice [3]): 0.4 (0.4)

SMILES: CNC(=O)COCC(=O)NCCNC(=O)COCC(=O)NC1CCC2(O)C3Cc4ccc(O)c5c4C2(CCN3C)C1O5 (stereo not drawn) [Compound 9, reference compound]
- Ligand ED50 pmol (95% C.L.), antinociceptive potency (male ICR mice [1]): 39.39 pmol

SMILES: CNC(=O)COCC(=O)NCCCNC(=O)COCC(=O)NC1CCC2(O)C3Cc4ccc(O)c5c4C2(CCN3C)C1O5 (stereo not drawn) [Compound 10, reference compound]
- Ligand ED50 pmol (95% C.L.), antinociceptive potency (male ICR mice [1]): 39.69 pmol

SMILES: CNC(=O)COCC(=O)NCCCCCNC(=O)COCC(=O)NC1CCC2(O)C3Cc4ccc(O)c5c4C2(CCN3C)C1O5 (stereo not drawn) [Compound 12, reference compound]
- Ligand ED50 pmol (95% C.L.), antinociceptive potency (male ICR mice [1]): 39.45 pmol
- ED50 ICV (nmol) (male ICR mice [1]; tail flick, ICV, Table 2): 0.04 (0.03-0.05) nmol
- ED50 IV (nmol) (male ICR mice [4]): 1.61 (1.29-1.92) nmol
- tolerance on chronic ICV administration (male ICR mice [2]): produced both antinociceptive tolerance and physical dependence
- Chronic ED50 nmol (95% C.L.) (male ICR mice [2]): 0.22 (0.19-0.26) nmol
- Saline ED50 nmol (95% C.L.) (male ICR mice [2]): 0.04 (0.03-0.05) nmol
- fold increase in ED50 value after chronic ICV infusion (male ICR mice [2]): 5.5 fold
- physical dependence on chronic ICV administration (male ICR mice [3]): produced both antinociceptive tolerance and physical dependence
- # of Jumps (SEM), naloxone-precipitated withdrawal (male ICR mice [3]): 83 (13)
- # of Jumps (SEM), naloxone-precipitated withdrawal (male ICR mice [3]; listed as MA-19): 83

SMILES: CNC(=O)COCC(=O)NCCCCCCNC(=O)COCC(=O)N[C@H]1CC[C@@]2(O)[C@H]3Cc4ccc(O)c5c4[C@@]2(CCN3C)[C@H]1O5 [Compound 13, (5α,6α)-6-{2-[(6-{2-[(Methylaminocarbonyl)-methoxy]-acetylamino}-hexylaminocarbonyl)-methoxy]-acetylamino}-4,5-epoxy-3,14-dihydroxy-17-methylmorphinan, reference compound]
- Ligand ED50 pmol (95% C.L.), antinociceptive potency (male ICR mice [1]): 37.25 pmol

SMILES: CNC(=O)COCC(=O)NCCCCCCCNC(=O)COCC(=O)NC1CCC2(O)C3Cc4ccc(O)c5c4C2(CCN3C)C1O5 (stereo not drawn) [Compound 14, reference compound]
- Ligand ED50 pmol (95% C.L.), antinociceptive potency (male ICR mice [1]): 43.56 pmol
